According to PMC4823954, “From fighting depression to conquering tumors: a novel tricyclic thiazepine compound as a tubulin polymerization inhibitor” (Cell Death & Disease, 2016):

Assays:
[1] = human liver microsome stability; format: in vitro ADME; conditions: liver microsomes, read-out: T1/2 in human liver microsome (converted)
From the text: (§1) As in vivo investigations are generally time consuming and expensive, it is advantageous to eliminate those compounds that are not suitable for animal experiments. One of the necessary steps is to screen the initial hits using assays testing their possible behaviors in vivo. To evaluate the drug-like properties of TBPT, a panel of in vitro assays was preformed (Table 1). The parallel artificial membrane permeability assay (PAMPA) was used to evaluate the cell permeability of the compounds. Compounds with a Pe >[…] are classified as highly permeable. […] The Caco-2 assay was used to predict the oral absorption values of the compounds in vivo. Compounds with a Caco-2 efflux ratio >2 may be subject to active efflux and should not be developed further. […] The half-life (T1/2) in human liver microsomes is used to predict the metabolism properties of compounds in vivo. […] A very long T1/2 (>24 h) increases the risk of cumulative toxicity and is not desirable. […] T1/2 in plasma indicates the stability of the drug in human blood; the high T1/2 values of these compounds indicated better stability in vivo. Plasma protein binding influences the distribution of drugs into body tissues, and compounds with high plasma protein binding (>99%) are limited in terms of the amount of free compound that are available to act on the targeted tissue. […]

[2] = plasma stability; format: in vitro ADME; conditions: human, read-out: T1/2 in human plasma
From the text: as §1

[3] = target: T1, tubulin (Sus scrofa, UniProt P02550+P02554); test: Tubulin polymerization assay (cell-free); format: biochemical; conditions: fluorescence, 50 min, 37 °C, read-out: IC50 of tubulin polymerization (microtubule formation)
T1 construct: purchased Cytoskeleton, Denver, CO, USA
Procedure: A fluorescence-based tubulin polymerization assay kit was used to monitor the polymerization process according to the manufacturer's instructions (Cytoskeleton, Denver, CO, USA). […] Tubulin solution (50 μl) was dispensed rapidly into each well.

[4] = system: H460TaxR; test: Apoptosis flow cytometry (PI/Annexin V-FITC); format: cell-based, human; conditions: NSCLC cells (H460TaxR), 2 μM, 48 h
[5] = target: T2, ABL1(Q252H)-phosphorylated (Homo sapiens, UniProt P00519, Q252H); test: KINOMEscan; format: binding; conditions: read-out: % Ctrl
T2 construct: purchased DiscoveRx KINOMEscan

[6] = target: T3, EGFR(G719C) (Homo sapiens, UniProt P00533, G719C); test: KINOMEscan; format: binding; conditions: read-out: % Ctrl
T3 construct: purchased DiscoveRx KINOMEscan

[7] = target: T4, EGFR(L747-S752del, P753S) (Homo sapiens, UniProt P00533, DEL747-752/P753S); test: KINOMEscan; format: binding; conditions: read-out: % Ctrl
T4 construct: purchased DiscoveRx KINOMEscan

[8] = target: T5, EGFR(L858R) (Homo sapiens, UniProt P00533, L858R); test: KINOMEscan; format: binding; conditions: read-out: % Ctrl
T5 construct: purchased DiscoveRx KINOMEscan

[9] = target: T6, EGFR(L861Q) (Homo sapiens, UniProt P00533, L861Q); test: KINOMEscan; format: binding; conditions: read-out: % Ctrl
T6 construct: purchased DiscoveRx KINOMEscan

[10] = target: T7, FGFR3(G697C) (Homo sapiens, UniProt P22607, G697C); test: KINOMEscan; format: binding; conditions: read-out: % Ctrl
T7 construct: purchased DiscoveRx KINOMEscan

[11] = system: FLT3(ITD); test: KINOMEscan; format: binding, human
Procedure: The binding assay for 442 non-mutant kinases was performed using KINOMEscan (DiscoveRx Corporation, Fremont, CA, USA) as reported previously.[58], [59] TBPT was screened at concentrations of 5 and 10 μM to identify the affected kinases. KINOMEscan is based on a competition reaction that quantitatively measures the ability of a test compound to compete with an active site-directed ligand for binding to the kinase active site. […] After the assay plates were incubated with shaking for 1 h, the liganded beads were washed with washing buffer (1 × PBS and 0.05% Tween 20). Then, the beads were re-suspended in elution buffer (1 × PBS, 0.05% Tween 20, and 0.5 μM ligand) and incubated with shaking for 30 min. The kinase concentration in the eluates was measured via qPCR. The results are represented as ‘%Ctrl', which was calculated using the following formula: (test compound signal–positive control signal)/(DMSO signal–positive control signal) × 100%. A lower % Ctrl indicates stronger binding to the kinase active site.

[12] = target: T8, FLT3(K663Q) (Homo sapiens, UniProt P36888, K663Q); test: KINOMEscan; format: binding; conditions: read-out: % Ctrl
T8 construct: purchased DiscoveRx KINOMEscan

[13] = target: T9, KIT(V559D) (Homo sapiens, UniProt P10721, V559D); test: KINOMEscan; format: binding; conditions: read-out: % Ctrl
T9 construct: purchased DiscoveRx KINOMEscan

[14] = target: T10, LRRK2(G2019S) (Homo sapiens, UniProt Q5S007, G2019S); test: KINOMEscan; format: binding; conditions: read-out: % Ctrl
T10 construct: purchased DiscoveRx KINOMEscan

[15] = target: T11, PIK3CA(Q546K) (Homo sapiens, UniProt P42336, Q546K); test: KINOMEscan; format: binding; conditions: read-out: % Ctrl
T11 construct: purchased DiscoveRx KINOMEscan

[16] = target: T12, PKNB(M.tuberculosis) (Mycobacterium tuberculosis, UniProt P9WI81); test: KINOMEscan; format: binding; conditions: read-out: % Ctrl
T12 construct: purchased DiscoveRx KINOMEscan

[17] = target: T13, RET(M918T) (Homo sapiens, UniProt P07949, M918T); test: KINOMEscan; format: binding; conditions: read-out: % Ctrl
T13 construct: purchased DiscoveRx KINOMEscan

[18] = system: mice hippocampus cells; test: Cell cycle and apoptosis analysis; conditions: 2 μM
Procedure: Cell cycle and apoptosis analyses were performed on a Guava EasyCyte Flow Cytometry System (Millipore, Billerica, MA, USA). Cells were seeded in 6-cm culture plates and treated with 2 μM TBPT or an equal volume of DMSO on the next day for the indicated times. To analyze the intracellular DNA content, cells were harvested, washed twice in PBS and fixed in 70% ethanol at −20 °C overnight. After the cells were washed in PBS, they were stained with Guava cell cycle reagent (Millipore) and analyzed via flow cytometry. For cell apoptosis analysis, the cells were harvested, washed in PBS, stained with PI/Annexin V-FITC reagent (Life Technologies) and analyzed by flow cytometry.
The cell cycle (a) and apoptosis (b) analysis of mice hippocampus cells. The new-born mice hippocampus cells were derived and cultured as previously report (F Lu et al. Cell Death and Disease, 2012). Cells were treated with DMSO or TBPT (2 μM) for the indicated times. After the cells were stained, they were analyzed for cell cycle and apoptosis using flow cytometry.

T13 sequence (P07949 29-1114 M918T): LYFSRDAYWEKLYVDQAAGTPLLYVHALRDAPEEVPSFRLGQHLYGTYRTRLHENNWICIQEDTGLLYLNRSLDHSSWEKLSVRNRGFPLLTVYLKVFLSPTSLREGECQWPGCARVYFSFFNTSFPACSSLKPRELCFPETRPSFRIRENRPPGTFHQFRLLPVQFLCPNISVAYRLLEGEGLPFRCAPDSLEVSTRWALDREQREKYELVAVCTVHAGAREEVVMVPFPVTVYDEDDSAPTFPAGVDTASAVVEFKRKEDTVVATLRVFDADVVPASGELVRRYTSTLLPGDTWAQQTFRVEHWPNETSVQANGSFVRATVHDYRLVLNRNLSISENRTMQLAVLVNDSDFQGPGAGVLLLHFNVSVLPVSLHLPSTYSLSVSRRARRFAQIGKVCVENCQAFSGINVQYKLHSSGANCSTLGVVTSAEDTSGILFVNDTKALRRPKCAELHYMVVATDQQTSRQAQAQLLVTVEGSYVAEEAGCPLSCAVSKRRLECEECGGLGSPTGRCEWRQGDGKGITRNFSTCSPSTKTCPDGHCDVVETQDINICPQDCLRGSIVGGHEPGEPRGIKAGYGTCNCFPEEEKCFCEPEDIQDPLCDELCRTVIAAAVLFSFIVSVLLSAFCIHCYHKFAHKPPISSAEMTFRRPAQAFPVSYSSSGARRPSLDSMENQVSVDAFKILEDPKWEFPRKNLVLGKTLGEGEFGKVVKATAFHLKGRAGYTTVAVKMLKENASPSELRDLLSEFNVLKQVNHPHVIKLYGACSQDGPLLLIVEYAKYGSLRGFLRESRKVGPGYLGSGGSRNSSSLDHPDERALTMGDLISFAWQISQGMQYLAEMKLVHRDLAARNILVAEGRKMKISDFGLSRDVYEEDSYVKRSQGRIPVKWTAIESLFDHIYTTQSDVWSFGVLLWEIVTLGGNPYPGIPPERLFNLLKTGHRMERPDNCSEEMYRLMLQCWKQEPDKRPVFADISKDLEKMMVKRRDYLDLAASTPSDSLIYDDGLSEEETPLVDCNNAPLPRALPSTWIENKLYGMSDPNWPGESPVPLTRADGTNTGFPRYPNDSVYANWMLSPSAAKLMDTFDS
T6 sequence (P00533 25-1210 L861Q): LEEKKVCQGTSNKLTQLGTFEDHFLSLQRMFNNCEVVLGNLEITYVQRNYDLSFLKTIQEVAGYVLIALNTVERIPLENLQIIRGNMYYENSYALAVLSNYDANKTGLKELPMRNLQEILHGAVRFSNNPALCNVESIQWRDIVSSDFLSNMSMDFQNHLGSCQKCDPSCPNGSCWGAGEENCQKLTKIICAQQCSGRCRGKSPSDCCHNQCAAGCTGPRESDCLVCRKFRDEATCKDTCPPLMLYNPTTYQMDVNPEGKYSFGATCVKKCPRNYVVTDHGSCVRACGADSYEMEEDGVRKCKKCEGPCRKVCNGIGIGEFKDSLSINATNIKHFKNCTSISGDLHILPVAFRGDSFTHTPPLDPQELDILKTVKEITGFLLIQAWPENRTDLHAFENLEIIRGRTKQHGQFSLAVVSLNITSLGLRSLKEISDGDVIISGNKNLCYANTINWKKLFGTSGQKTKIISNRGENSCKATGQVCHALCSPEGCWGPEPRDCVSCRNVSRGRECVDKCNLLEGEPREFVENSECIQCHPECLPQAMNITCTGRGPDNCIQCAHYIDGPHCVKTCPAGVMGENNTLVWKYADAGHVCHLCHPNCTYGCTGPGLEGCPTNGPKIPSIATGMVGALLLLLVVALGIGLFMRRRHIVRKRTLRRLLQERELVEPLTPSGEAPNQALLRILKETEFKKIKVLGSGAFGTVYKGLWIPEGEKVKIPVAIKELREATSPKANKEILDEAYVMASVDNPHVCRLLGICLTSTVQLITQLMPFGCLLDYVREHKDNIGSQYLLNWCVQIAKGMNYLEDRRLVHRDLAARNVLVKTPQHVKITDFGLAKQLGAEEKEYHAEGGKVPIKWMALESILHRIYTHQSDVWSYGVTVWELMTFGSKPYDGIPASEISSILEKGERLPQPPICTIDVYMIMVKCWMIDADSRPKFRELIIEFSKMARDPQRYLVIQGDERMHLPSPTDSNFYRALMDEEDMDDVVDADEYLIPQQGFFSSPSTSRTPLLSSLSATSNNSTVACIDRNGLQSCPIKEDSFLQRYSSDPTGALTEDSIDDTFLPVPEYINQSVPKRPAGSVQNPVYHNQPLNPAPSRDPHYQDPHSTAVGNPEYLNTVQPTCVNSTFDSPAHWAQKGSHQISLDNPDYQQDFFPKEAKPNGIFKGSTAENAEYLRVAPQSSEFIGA
T4 sequence (P00533 with tags, fused parts or gaps DEL747-752/P753S limits assumed): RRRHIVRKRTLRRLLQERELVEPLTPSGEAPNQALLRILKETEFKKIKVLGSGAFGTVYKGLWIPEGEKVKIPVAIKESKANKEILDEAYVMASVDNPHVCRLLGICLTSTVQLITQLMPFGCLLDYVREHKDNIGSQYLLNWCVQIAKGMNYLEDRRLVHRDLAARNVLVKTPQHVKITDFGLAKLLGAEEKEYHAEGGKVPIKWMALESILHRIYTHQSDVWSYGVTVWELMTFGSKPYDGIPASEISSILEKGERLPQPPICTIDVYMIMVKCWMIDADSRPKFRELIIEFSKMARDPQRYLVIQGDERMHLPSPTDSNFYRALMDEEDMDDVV
T12 sequence (P9WI81 whole entry): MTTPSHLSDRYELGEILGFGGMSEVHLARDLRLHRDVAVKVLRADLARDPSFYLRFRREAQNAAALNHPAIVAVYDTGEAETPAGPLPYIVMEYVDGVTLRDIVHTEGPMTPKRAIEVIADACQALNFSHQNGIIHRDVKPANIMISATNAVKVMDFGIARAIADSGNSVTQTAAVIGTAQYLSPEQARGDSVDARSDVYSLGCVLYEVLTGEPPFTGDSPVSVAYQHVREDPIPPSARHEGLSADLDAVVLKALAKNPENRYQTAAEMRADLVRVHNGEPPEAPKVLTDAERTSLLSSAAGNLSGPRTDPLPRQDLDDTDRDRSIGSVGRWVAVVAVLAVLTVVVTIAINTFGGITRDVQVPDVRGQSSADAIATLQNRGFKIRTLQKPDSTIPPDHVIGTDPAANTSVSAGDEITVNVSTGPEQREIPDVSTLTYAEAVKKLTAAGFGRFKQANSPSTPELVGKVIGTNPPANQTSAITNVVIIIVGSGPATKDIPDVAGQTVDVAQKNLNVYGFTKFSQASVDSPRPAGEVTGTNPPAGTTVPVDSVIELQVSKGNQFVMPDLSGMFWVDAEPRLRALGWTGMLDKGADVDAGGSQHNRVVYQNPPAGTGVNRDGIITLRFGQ
T9 sequence (P10721 26-976 V559D): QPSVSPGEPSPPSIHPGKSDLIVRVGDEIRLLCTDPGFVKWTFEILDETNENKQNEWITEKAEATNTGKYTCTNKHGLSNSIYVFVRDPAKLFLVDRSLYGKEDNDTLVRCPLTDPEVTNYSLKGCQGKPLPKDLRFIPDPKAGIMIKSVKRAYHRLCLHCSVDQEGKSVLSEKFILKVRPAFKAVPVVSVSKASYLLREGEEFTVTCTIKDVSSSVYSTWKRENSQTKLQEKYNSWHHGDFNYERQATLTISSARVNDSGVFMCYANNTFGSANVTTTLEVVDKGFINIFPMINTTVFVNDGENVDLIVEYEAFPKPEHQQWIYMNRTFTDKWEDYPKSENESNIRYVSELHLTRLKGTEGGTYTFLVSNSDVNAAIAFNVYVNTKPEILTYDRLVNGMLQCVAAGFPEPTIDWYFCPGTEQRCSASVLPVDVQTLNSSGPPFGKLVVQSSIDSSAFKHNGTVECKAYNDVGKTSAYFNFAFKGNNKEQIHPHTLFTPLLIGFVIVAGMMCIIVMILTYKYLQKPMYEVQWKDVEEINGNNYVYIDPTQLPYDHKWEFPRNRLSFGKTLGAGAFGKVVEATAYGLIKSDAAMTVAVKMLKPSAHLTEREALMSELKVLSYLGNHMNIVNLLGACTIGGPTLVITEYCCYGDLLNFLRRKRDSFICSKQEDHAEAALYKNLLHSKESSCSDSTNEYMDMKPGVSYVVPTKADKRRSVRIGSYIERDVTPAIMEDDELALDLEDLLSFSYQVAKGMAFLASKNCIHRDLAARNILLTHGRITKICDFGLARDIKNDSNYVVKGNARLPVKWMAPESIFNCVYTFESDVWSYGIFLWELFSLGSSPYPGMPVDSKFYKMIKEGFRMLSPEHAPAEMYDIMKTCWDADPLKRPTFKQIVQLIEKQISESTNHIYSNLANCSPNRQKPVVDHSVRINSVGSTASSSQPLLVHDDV
T7 sequence (P22607 23-806 G697C): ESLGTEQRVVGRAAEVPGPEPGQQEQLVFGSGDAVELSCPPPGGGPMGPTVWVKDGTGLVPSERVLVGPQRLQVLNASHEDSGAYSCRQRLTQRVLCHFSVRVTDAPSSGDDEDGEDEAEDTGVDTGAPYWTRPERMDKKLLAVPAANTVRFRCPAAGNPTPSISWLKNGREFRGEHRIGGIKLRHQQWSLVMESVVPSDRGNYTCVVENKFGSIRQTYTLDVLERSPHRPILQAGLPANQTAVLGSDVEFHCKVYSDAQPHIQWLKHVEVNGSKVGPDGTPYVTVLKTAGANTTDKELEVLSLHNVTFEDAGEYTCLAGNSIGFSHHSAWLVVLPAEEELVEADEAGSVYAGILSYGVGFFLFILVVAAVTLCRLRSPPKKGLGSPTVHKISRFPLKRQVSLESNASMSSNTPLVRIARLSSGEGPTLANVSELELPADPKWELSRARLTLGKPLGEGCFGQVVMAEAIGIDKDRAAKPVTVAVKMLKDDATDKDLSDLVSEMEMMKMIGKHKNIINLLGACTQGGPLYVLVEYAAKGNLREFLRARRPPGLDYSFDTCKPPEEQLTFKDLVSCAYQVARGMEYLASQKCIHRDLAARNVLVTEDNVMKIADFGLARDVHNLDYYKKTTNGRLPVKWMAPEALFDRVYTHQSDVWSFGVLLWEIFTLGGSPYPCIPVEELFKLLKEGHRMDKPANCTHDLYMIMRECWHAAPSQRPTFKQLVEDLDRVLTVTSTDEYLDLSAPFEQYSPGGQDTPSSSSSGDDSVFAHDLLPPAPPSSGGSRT

Which results are given for `Cc1ccc(C2=Nc3cccnc3S(=O)(=O)c3ccccc32)cc1` [TBPT, 6-(p-tolyl)benzo[f] pyrido[2,3-b][1,4] thiazepine 11,11-dioxide]?
half-life [1]: 5.18 ± 0.69 h; half-life [2]: > 50 h; IC50 [3]: 12.6 µM; cells in an apoptotic/necrotic state [4]: approximately 50%; remaining binding at 5 µM ([5]; 5 μM): 83%; remaining binding at 10 µM ([5]; 10 μM): 100%; remaining binding at 5 µM ([6]; 5 μM): 73%; remaining binding at 10 µM ([6]; 10 μM): 100%; remaining binding at 5 µM ([7]; 5 μM): 76%; remaining binding at 10 µM ([7]; 10 μM): 91%; remaining binding at 5 µM ([8]; 5 μM): 85%; remaining binding at 10 µM ([8]; 10 μM): 100%; remaining binding at 5 µM ([9]; 5 μM): 100%; remaining binding at 10 µM ([9]; 10 μM): 100%; remaining binding at 5 µM ([10]; 5 μM): 100%; remaining binding at 10 µM ([10]; 10 μM): 82%; % Ctrl ([11]; 5 μM): 95%; % Ctrl ([11]; 10 μM): 100%; remaining binding at 5 µM ([12]; 5 μM): 84%; remaining binding at 10 µM ([12]; 10 μM): 94%; remaining binding at 5 µM ([13]; 5 μM): 72%; remaining binding at 10 µM ([13]; 10 μM): 91%; remaining binding at 5 µM ([14]; 5 μM): 86%; remaining binding at 10 µM ([14]; 10 μM): 99%; remaining binding at 5 µM ([15]; 5 μM): 100%; remaining binding at 10 µM ([15]; 10 μM): 94%; remaining binding at 5 µM ([16]; 5 μM): 100%; remaining binding at 10 µM ([16]; 10 μM): 85%; remaining binding at 5 µM ([17]; 5 μM): 99%; remaining binding at 10 µM ([17]; 10 μM): 99%; cell cycle arrest or apoptosis [18]: very little cell cycle arrest or apoptosis
